These results are taken from article PMC11650638, “In Vivo Activity Profiling of Biosynthetic Darobactin D22 against Critical Gram-Negative Pathogens” (ACS Infectious Diseases, 2024).

Series [1] has as its system Pseudomonas aeruginosa PAO1. Kind of series: Murine neutropenic thigh infection model. Type of series: in vivo, CD-1 mice. Conditions: 8 h, 20 mg/kg. Here is the method: Zg, Committee on Animal Research Ethics-Zagreb) in collaboration with the Croatian Competent Authority and the National Ethics Committee, granting this project a 5-year authorisation, in compliance […]
Animals: The study was performed in male, 6–7 weeks old C57BL/6 mice. Animals were housed in a temperature-controlled room (22±2°C), relative humidity 55±10%, 15–20 air changes per hour, atrificial […]
Sampling: Serial or terminal blood samples were collected into EDTA-coated tubes at the following […]
into Precellys® tubes for all animals. Additional, terminal tissue samples were taken at 1 h for the IV and IP groups. For the SC and IT groups, terminal tissue samples were further taken at 2, 4, 8 h. Urine […]
samples (3 animals) were collected into emtpy tubes and kept chilled, followed by centrifugation at 3000 rpm, 10 min, 4°C. Total urine volume was recorded. […]
reduce stress and harm arising from experimental procedures, including use of analgesia, access to wet food and additional bedding. The room temperature, relative humidity and maximum background noise were maintained according to Home Office Code of Practice. Mice were exposed to 12-hour light/dark […]
Mice were immunosuppressed using cyclophosphamide administered subcutaneously (SC) at 150 mg/kg on day minus 4 and at 100 mg/kg on day minus 1 relative to the day of infection. Following […]

For series [2], the system named is Klebsiella pneumoniae. In words: MIC50/MIC90 determination and MIC against isolates of K. pneumoniae. Type of series: cell-based. Conditions: Klebsiella pneumoniae.
For series [3], the system named is Acinetobacter baumannii. Kind of series: MIC50/MIC90 determination and MIC against isolates of A. baumannii. The series is classed as cell-based. As to conditions: Acinetobacter baumannii, read-out: MIC.
The subject of series [4] is Escherichia coli. Kind of series: MIC50/MIC90 determination and MIC against isolates of E. coli. The series is classed as cell-based. As to conditions: Escherichia coli.
Series [5] concerns Pseudomonas aeruginosa. In words: MIC50/MIC90 determination and MIC against isolates of P. aeruginosa. Type of series: cell-based. Conditions: Pseudomonas aeruginosa, read-out: MIC.
The test system of series [6] is Pseudomonas aeruginosa PAO1. Details: method as in PMID 36308277, PMID 38093695. As to conditions: cited from earlier work.
Series [7] concerns Acinetobacter baumannii DSM30008. Details: method as in PMID 36308277, PMID 38093695. Conditions: cited from earlier work.
The test system of series [8] is Acinetobacter baumannii ATCC17978. Kind of series: microbe, parasite or virus in culture. Type of series: cell-based. The procedure: (§1) MIC90 determination was performed
(§2) MIC against Clinical Isolates of E. coli.
(§3) Zebrafish Infection Model
(§4) carbenicillin (Carl Roth, Karlsruhe, Germany).3
(§5) Minimum inhibitory concentrations

Series [9] shares this test system. Kind of series: Zebrafish embryo model of A. baumannii infection. As to conditions: 10 mg/kg, caudal vein microinjection 3 hpi.
The subject of series [10] is Escherichia coli ATCC25922. Details: method as in PMID 36308277, PMID 38093695. As to conditions: cited from earlier work.
Series [11] has as its system Escherichia coli C175-94. In words: Murine urinary tract infection model. The series is classed as in vivo, C3H/HeNHsd mice. Conditions: positive control, BID, day 4. The procedure: One IV dosing arm at 5 mg/kg was included for comparison. Mice were treated for 3 days post-inoculation, and the bacterial burden was determined on day 4.
In vivo urinary tract infection model. The murine urinary tract infection model was conducted at Statens Serum Institut in Copenhagen, Denmark under the supervision of the Danish Animal Ethical […]
Bacterial challenge organism: The challenge organism was Escherichia coli C175-94 (serotype O8:K48:H4), a clinical isolate elaborating type 1 fimbriae, previously used for developing and validating the urinary tract infecti on model.7
Animals: Upon arrival to Statens Serum Institut animal facility, female C3H/HeNHsd mice 5 -6 weeks old (Envigo, Netherlands), were randomized to 8 mice per cage and acclimatized 1 week before experimental start. Bedding was from Tapvei and Enviro -Dri nesting material and cardboard houses (Bio-serv) was offered as enrichment. Mice had free access to domestic quality drinking water and food […]
Mice were monitored twice daily for clinical symptoms of infection or discomfort and euthanized if reaching humane endpoints specified in the ethical permission […]
Dickinson, cat. […] Colony counts of urine were determined immediately. […]
OD540nm of the supernatant was measured and the hemolytic % was calculated following the formula: (OD test compound – OD blank)-(OD positive

For series [12], the system named is Escherichia coli clinical isolates. In words: MIC against clinical isolates of E. coli (Statens Serum Institut, CLSI). The series is classed as cell-based. The procedure: as §1, §2, §3, §4, §5

Values after ≈ are worked out from the molar mass of the structure shown. Like-named read-outs stand apart in the source and are kept apart here.

In the case of `O=C(O)c1cn(C2CC2)c2cc(N3CCNCC3)c(F)cc2c1=O` [Ciprofloxacin, ciprofloxacin], the “Δlog CFU/g in thigh muscle” value in series [1] was “–4.06 log CFU/g”. Further, the MIC in series [2] (NCTC13439, isolate NCTC13439) stood at 16 µg/mL (≈ 48.3 µM); in series [2] (NCTC13442, isolate NCTC13442), 4 µg/mL (≈ 12.1 µM); in series [3] (ATCC17978, isolate ATCC17978), 0.5 µg/mL (≈ 1.51 µM); in [3] (ATCC19187, isolate ATCC19187), 0.5 µg/mL (≈ 1.51 µM); in series [3] (ATCC51432, isolate ATCC51432), 16 µg/mL (≈ 48.3 µM); in series [3] (ATCCBAA747, isolate ATCC BAA-747), 0.5 µg/mL (≈ 1.51 µM). Further, the MIC was greater than 32 µg/mL in series [3] (ATCCBAA1605, isolate ATCC BAA-1605); 32 µg/mL (≈ 96.6 µM) in [3] (ATCCBAA1710, isolate ATCC BAA-1710); greater than 32 µg/mL in series [3] (ATCCBAA1791, isolate ATCC BAA-1791); greater than 32 µg/mL in series [3] (ATCCBAA1795, isolate ATCC BAA-1795); 4 to 8 µg/mL (≈ 12.1 to 24.1 µM) in [3] (ATCCBAA1878, isolate ATCC BAA-1878); 0.125 to 0.25 µg/mL (≈ 0.377 to 0.754 µM) in series [3] (CIP105742, isolate CIP 105742). In addition, the MIC was greater than 32 µg/mL in [3] (CIP107292, isolate CIP 107292); greater than 32 µg/mL in series [3] (NCTC13301, isolate NCTC13301); 32 µg/mL (≈ 96.6 µM) in series [3] (isolate BM4454); greater than 32 µg/mL in series [3] (isolate G478 (AYE)); 8 µg/mL (≈ 24.1 µM) in [3] (isolate R831); 32 µg/mL (≈ 96.6 µM) in [3] (isolate R835). In addition, the MIC was 0.063 to 0.125 µg/mL (≈ 0.19 to 0.377 µM) in [4]; 4 µg/mL (≈ 12.1 µM) in series [5] (ATCCBAA2114, isolate ATCC BAA-2114); 0.5 µg/mL (≈ 1.51 µM) in series [5] (CIP105381, isolate CIP 105381); 1 µg/mL (≈ 3.02 µM) in [5] (PAO1, isolate PAO1); 16 µg/mL (≈ 48.3 µM) in [5] (isolate BOR 05); 4 µg/mL (≈ 12.1 µM) in series [5] (isolate CAE 02). The MIC in series [5] (isolate CHA) worked out at 0.5 µg/mL (≈ 1.51 µM); in series [5] (isolate R2255), 0.5 µg/mL (≈ 1.51 µM); in [5] (isolate ROU 01), 16 µg/mL (≈ 48.3 µM); in series [5] (isolate SDE 05), 0.5 µg/mL (≈ 1.51 µM).

For `N=C(N)NCCC[C@H](NC(=O)[C@H]1NC(=O)[C@H](CO)NC(=O)[C@H]2NC(=O)[C@H](CCC(N)=O)NC(=O)[C@@H](N)Cc3c[nH]c4c(cccc34)O[C@@H]2c2c[nH]c3cc(ccc23)[C@@H]1CCCN)C(=O)N[C@@H](Cc1c[nH]c2ccccc12)C(=O)O` [Darobactin D69], in [6], the “MIC P. aeruginosa” value was 1 µg/mL (≈ 0.919 µM). The “MIC A. baumannii” value in [7] is 0.5 µg/mL (≈ 0.459 µM). In addition, the MIC in series [8] (ATCC17978, GFP-tagged A. baumannii ATCC17978) came to 1 µg/mL (≈ 0.919 µM); in [8] (ATCC17978, WT A. baumannii ATCC17978) it was 2 µg/mL (≈ 1.84 µM). The “clearance of A. baumannii infection within zebrafish embryos” value in series [9] was “completely cleared”. The “MIC E. coli” value in series [10] is 1 µg/mL (≈ 0.919 µM).

For `CNC(C)C1CCC(N)C(OC2C(N)CC(N)C(OC3OCC(C)(O)C(NC)C3O)C2O)O1` (centres unmarked) [Gentamicin, gentamicin], the “bacterial burden in urine, bladder, kidney” value in series [11] is “reduction of bacterial burden below stasis level in all tissues”. The MIC is 0.5 to 1 µg/mL (≈ 1.05 to 2.09 µM) in [12] (ATCC25922, E. coli ATCC25922); 16 to 32 µg/mL (≈ 33.5 to 67 µM) in series [12] (E. coli 50639799); 2 µg/mL (≈ 4.19 µM) in series [12] (E. coli C175-94); greater than 64 µg/mL in [12] (E. coli DSA443); 1 to 2 µg/mL (≈ 2.09 to 4.19 µM) in [12] (E. coli EC 106-09 (ESBL)).
